Test systems include SK-OV-3 ovarian; OVCAR-4 ovarian; HL-60(TB) leukemia; SN12C renal; SK-MEL-5 melanoma; CAKI-1 renal; SR leukemia; EKVX NSCLC; HOP-92 NSCLC; DU-145 prostate.
Common to all, as to assay: DTP human tumour cell line panel, 48 h

For orientation: GI50 means the concentration giving 50% growth inhibition. The TGI is the concentration at which net growth stops.

Several values for one entry are separate records, joined by “and”; a condition that tells them apart may be missing. Equal values may be shown once.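 Cells were grown in 96-well plates and exposed to each compound for 48 hours at five concentrations; endpoints were interpolated linearly between bracketing concentrations, or set to the highest concentration if not reached. The concentration for 50% growth inhibition is given as GI50. The concentration for full growth arrest is given as TGI.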

As for `NC(=O)c1cc(Br)ccc1NC(=O)/C=C/c1ccccc1`, the GI50 in the test with SK-OV-3 ovarian is 3.68 µM; with OVCAR-4 ovarian it was 8.85 µM; in the test on HL-60(TB) leukemia, 0.876 µM; with SN12C renal, 4.9 µM; with SK-MEL-5 melanoma, 0.608 µM; with CAKI-1 renal, 6.17 µM. The GI50 is 0.823 µM in the test on SR leukemia, 3.27 µM in the test with EKVX NSCLC, 5.34 µM in the test with HOP-92 NSCLC and 2.3 µM in the test on DU-145 prostate. The TGI is over 23.6 µM in the test on SK-OV-3 ovarian; over 100 µM in the test with OVCAR-4 ovarian; 4.11 µM in the test with HL-60(TB) leukemia; over 100 µM in the test with SN12C renal; over 60.2 µM in the test with SK-MEL-5 melanoma; over 100 µM in the test on CAKI-1 renal. For the same compound, the TGI was over 100 µM with SR leukemia, over 100 µM in the test on EKVX NSCLC, 25.8 µM with HOP-92 NSCLC and over 100 µM in the test on DU-145 prostate.
Consider `COc1cc(CCC(=O)NC[C@@H](O)c2ccccc2)ccc1O`, for which the GI50 in the test on SK-OV-3 ovarian, in the test on OVCAR-4 ovarian, in the test with HL-60(TB) leukemia, with SN12C renal, in the test with SK-MEL-5 melanoma and with CAKI-1 renal was over 100 µM throughout. The GI50 was 61.6 µM with SR leukemia, over 100 µM in the test on EKVX NSCLC, over 100 µM with HOP-92 NSCLC and over 100 µM with DU-145 prostate. The TGI with SK-OV-3 ovarian, with OVCAR-4 ovarian, in the test with HL-60(TB) leukemia, in the test on SN12C renal, in the test with SK-MEL-5 melanoma and in the test with CAKI-1 renal was over 100 µM throughout. The TGI in the test with SR leukemia, in the test with EKVX NSCLC, in the test on HOP-92 NSCLC and in the test with DU-145 prostate was over 100 µM in each case.
In the case of `CNC(=O)c1cccc(C#Cc2cncnc2Nc2ccc(OCc3cccc(F)c3)c(Cl)c2)c1`, the GI50 in the test with SK-OV-3 ovarian was 3.19 µM; with OVCAR-4 ovarian, 4.23 µM; in the test on HL-60(TB) leukemia it was over 25 µM; with SN12C renal, 12 µM; in the test with SK-MEL-5 melanoma, 5.8 µM; in the test with CAKI-1 renal, 2.09 µM. The GI50 was 24.2 µM with SR leukemia, 1.22 µM in the test with EKVX NSCLC, 3.31 µM with HOP-92 NSCLC and 3.57 µM in the test with DU-145 prostate. Moreover, the TGI with SK-OV-3 ovarian was 12.7 µM; in the test with OVCAR-4 ovarian it was 12.3 µM; in the test on HL-60(TB) leukemia, over 25 µM; in the test with SN12C renal, over 25 µM; in the test with SK-MEL-5 melanoma, over 20.7 µM; in the test on CAKI-1 renal, over 25 µM. In addition, the TGI is over 25 µM in the test on SR leukemia, over 25 µM in the test with EKVX NSCLC, 11 µM in the test with HOP-92 NSCLC and 8.96 µM in the test with DU-145 prostate.
For `CC1Cc2ccccc2N1C(=O)Cc1nc(N2CCOCC2)cc(=O)[nH]1` (stereo not given), the GI50 is 4.9 µM and 13.3 µM with SK-OV-3 ovarian; 28.1 µM and 31.4 µM in the test on OVCAR-4 ovarian; 20.7 µM and 25.5 µM with HL-60(TB) leukemia; 9.39 µM and 13.9 µM in the test with SN12C renal; 13.4 µM and 34.5 µM in the test with SK-MEL-5 melanoma; 10.5 µM and 28 µM with CAKI-1 renal. Besides, the GI50 in the test with SR leukemia was 22.6 µM and 24.4 µM; in the test with EKVX NSCLC, 7.06 µM and 17.1 µM; in the test on HOP-92 NSCLC, 0.915 µM and 3.04 µM; with DU-145 prostate, 15.8 µM and 28.1 µM. For the same compound, the TGI in the test on SK-OV-3 ovarian was over 100 µM; in the test with OVCAR-4 ovarian, over 100 µM; with HL-60(TB) leukemia, over 100 µM; in the test with SN12C renal, over 100 µM; in the test with SK-MEL-5 melanoma, 34.1 µM and > 100 µM; with CAKI-1 renal, over 100 µM. Also, the TGI with SR leukemia was 97.3 µM and > 100 µM; with EKVX NSCLC, over 100 µM; in the test with HOP-92 NSCLC it was 46.1 µM and > 75.2 µM; in the test with DU-145 prostate, over 100 µM.
Turning to `O=[N+]([O-])c1oc2ccc3ccccc3c2c1CCO`, the TGI with SK-OV-3 ovarian is 5.1 µM; with OVCAR-4 ovarian, 17.3 µM; in the test on HL-60(TB) leukemia, 13 µM; in the test on SN12C renal, over 52 µM; with SK-MEL-5 melanoma it was 1.98 µM; with CAKI-1 renal, 8.58 µM. Further, the TGI in the test on SR leukemia is 3.23 µM; in the test on EKVX NSCLC, 2.09 µM; with HOP-92 NSCLC, 35 µM; with DU-145 prostate it was over 36.5 µM.
Take `Cc1ccccc1C(C(=O)NC1CCCCC1)N(C(=O)CNc1ncccc1F)c1cccc(F)c1` (stereo not given): the GI50 with SK-OV-3 ovarian is 20.8 µM; in the test with OVCAR-4 ovarian, over 23.6 µM; in the test on HL-60(TB) leukemia, over 100 µM; in the test with SN12C renal, over 79.9 µM; in the test with SK-MEL-5 melanoma it was over 100 µM; in the test on CAKI-1 renal, over 53.1 µM. For the same compound, the GI50 in the test on SR leukemia is over 100 µM; in the test on EKVX NSCLC it was over 100 µM; in the test with HOP-92 NSCLC, 13.9 µM; in the test on DU-145 prostate, over 100 µM. The TGI in the test on SK-OV-3 ovarian was over 61 µM; in the test on OVCAR-4 ovarian, over 100 µM; in the test on HL-60(TB) leukemia, over 100 µM; with SN12C renal it was over 100 µM; with SK-MEL-5 melanoma it was over 100 µM; in the test with CAKI-1 renal it was over 100 µM. For the same compound, the concentration for total growth inhibition (TGI) is over 100 µM with SR leukemia, over 100 µM in the test with EKVX NSCLC, 62.4 µM with HOP-92 NSCLC and over 100 µM in the test on DU-145 prostate.
With `Nc1ncn([C@H]2C[C@H](OP(=O)(O)OC[C@H]3O[C@@H](n4cnc5c(=O)[nH]c(N)nc54)C[C@@H]3O)[C@@H](CO)O2)c(=O)n1`, the GI50 in the test on SK-OV-3 ovarian was over 100 µM; in the test on OVCAR-4 ovarian, over 100 µM; in the test with HL-60(TB) leukemia, over 100 µM; in the test on SN12C renal it was 51.4 µM; in the test on SK-MEL-5 melanoma it was over 100 µM; in the test on CAKI-1 renal, over 100 µM. Further, the GI50 in the test on SR leukemia, with EKVX NSCLC, in the test on HOP-92 NSCLC and with DU-145 prostate was over 100 µM throughout. The TGI in the test with SK-OV-3 ovarian, in the test on OVCAR-4 ovarian, with HL-60(TB) leukemia, with SN12C renal, with SK-MEL-5 melanoma and in the test on CAKI-1 renal was over 100 µM each time. In addition, the TGI in the test with SR leukemia, with EKVX NSCLC, in the test with HOP-92 NSCLC and in the test with DU-145 prostate was over 100 µM throughout.
As to `O=C1c2c(Cl)c(Cl)c(Cl)c(Cl)c2C(=O)C2(Cl)CC=CCC12Cl` (stereo not given), the GI50 was 2.92 µM in the test with SK-OV-3 ovarian; 1.9 µM in the test with OVCAR-4 ovarian; 1.9 µM in the test on HL-60(TB) leukemia; 1.78 µM in the test on SN12C renal; 1.77 µM with SK-MEL-5 melanoma; 1.93 µM in the test with CAKI-1 renal. The GI50 is 1.15 µM in the test on SR leukemia, 2.64 µM with EKVX NSCLC, 2.03 µM in the test on HOP-92 NSCLC and 1.93 µM in the test on DU-145 prostate. For the same compound, the TGI turned out to be 10.9 µM with SK-OV-3 ovarian; 3.41 µM with OVCAR-4 ovarian; 5.04 µM in the test with HL-60(TB) leukemia; 3.22 µM in the test with SN12C renal; 3.79 µM in the test on SK-MEL-5 melanoma; 3.68 µM with CAKI-1 renal. Further, the total growth inhibition concentration (TGI) with SR leukemia came out at 4.38 µM; in the test on EKVX NSCLC, 7.81 µM; with HOP-92 NSCLC, 3.87 µM; in the test with DU-145 prostate, 3.36 µM.
